Measurements published in patent US11491245B2, “Gadolinium chelate compounds for use in magnetic resonance imaging” (BAYER PHARMA AKTIENGESELLSCHAFT, priority 2015, dated 2022).

Test: Relaxivity measurements at 3.0 T
Assay type: physicochemical
Settings: 37° C., normalized to Gd, average ± standard deviation
Procedure: Relaxivity measurements at 3.0 T were performed with a whole body 3.0 T MRI Scanner (Philips Intera, Philips Healthcare, Hamburg, Germany) using a knee-coil (SENSE-Knee-8, Philips Healthcare, Hamburg, Germany). The sample tubes (CryoTubetm Vials, Thermo Scientific 1.8 mL, Roskilde, Denmark) were positioned in 3 rows of 4 and 5 tubes in a plastic holder in a box filled with water. The temperature was adjusted to 37° C. For the MRI sequence, the shortest possible echo-time (TE) with 7.46 milliseconds was used. The inversion times were chosen to optimize the sequence to measure T1 values corresponding to the estimated T1 range of all relaxation times of contrast media containing solutions. The following inversion times (TIs) were applied: 50, 100, 150, 200, 300, 500, 700, 1000, 1400, 2100, 3200, and 4500 milliseconds. The sequence was run with a constant relaxation delay of 3.4 seconds after the registration of the last echo (variable TR in the range from 3450 to 7900 milliseconds). For details of the fit procedure, see Rohrer et. al. (Invest. Radiol. 2005; 40, 11: 715-724). The experimental matrix of the phantom measurement was 320×320.
The relaxivities were evaluated using three different concentrations of each compound (3 concentrations between 0.05 and 2 mM).
The T1 relaxation times of the Example compounds 1-6 were measured in water and human plasma. Human plasma preparation: For each experiment fresh blood was taken from a volunteer using 10 mL citrate-tubes (Sarstedt S-Monovette 02.1067.001, 10 mL, Citrate). The 10 mL citrate-tubes were carefully inverted 10 times to mix blood and anticoagulant and centrifuged for 15 minutes at 1811 g at room temperature (Eppendorf, Centrifuge 5810R).
The relaxivities ri (where i=1, 2) were calculated on the basis of the measured relaxation rates Ri in water and plasma: Ri=Ri(0)+ri[CGd], where Ri(0) represent the relaxation rate of the respective solvent and CGd the concentration of the compound normalized to the Gadolinium (Table 2).

CC(C(=O)NCC(=O)NCC(CNC(=O)CNC(=O)C(C)N1CCN(CC(=O)[O-])CCN(CC(=O)[O-])CCN(CC(=O)[O-])CC1)(CNC(=O)CNC(=O)C(C)N1CCN(CC(=O)[O-])CCN(CC(=O)[O-])CCN(CC(=O)[O-])CC1)CNC(=O)CNC(=O)C(C)N1CCN(CC(=O)[O-])CCN(CC(=O)[O-])CCN(CC(=O)[O-])CC1)N1CCN(CC(=O)[O-])CCN(CC(=O)[O-])CCN(CC(=O)[O-])CC1.[Gd+3].[Gd+3].[Gd+3].[Gd+3] (centres unmarked) [Example 3, Tetragadolinium [4,10-bis(carboxylatomethyl)-7-{3,6,12,15-tetraoxo-16-[4,7,10-tris-(carboxylatomethyl)-1,4,7,10-tetraazacyclododecan-1-yl]-9,9-bis({[({2-[4,7,10-tris-(carboxylatomethyl)-1,4,7,10-tetraazacyclododecan-1-yl]propanoyl}amino)acetyl]-amino}methyl)-4,7,11,14-tetraazaheptadecan-2-yl}-1,4,7,10-tetraazacyclododecan-1-yl]acetate]
r1 human plasma (human plasma): 10.2 ± 0.2 L/mmol/s
r1 water (water): 9.2 ± 0.3 L/mmol/s
